The text below walks through data of patent US9815864B2, “Substituted nucleosides, nucleotides and analogs thereof” (Alios BioPharma, Inc., priority 2013, dated 2017).

SMILES strings stand for the structures.

In the first assay the target is Norovirus polymerase (NoVpol, genotype II) (Lordsdale virus, UniProt P54634). Put plainly: biochemical.
Sequence of Norovirus polymerase (NoVpol, genotype II) (P54634 1190-1699 limits assumed): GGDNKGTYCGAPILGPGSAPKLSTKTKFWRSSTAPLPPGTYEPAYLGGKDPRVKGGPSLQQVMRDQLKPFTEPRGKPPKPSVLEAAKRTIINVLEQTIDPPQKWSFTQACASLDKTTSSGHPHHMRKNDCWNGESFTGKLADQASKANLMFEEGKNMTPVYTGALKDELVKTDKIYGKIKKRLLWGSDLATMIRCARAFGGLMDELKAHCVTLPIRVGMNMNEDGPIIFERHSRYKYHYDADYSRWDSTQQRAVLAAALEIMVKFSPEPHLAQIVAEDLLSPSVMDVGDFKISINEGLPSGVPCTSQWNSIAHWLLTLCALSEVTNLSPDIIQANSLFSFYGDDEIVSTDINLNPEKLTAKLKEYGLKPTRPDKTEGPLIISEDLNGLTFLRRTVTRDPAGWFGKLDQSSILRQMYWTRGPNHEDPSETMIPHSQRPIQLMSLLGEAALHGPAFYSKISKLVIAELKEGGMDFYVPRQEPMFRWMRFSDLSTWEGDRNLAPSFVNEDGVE
Conditions: not given
For orientation: IC50 means the concentration at which inhibition is half-maximal. In turn, `C[C@@]1(O)[C@H](O)[C@@](CF)(CO[P@](O)(=S)OP(=O)(O)OP(=O)(O)O)O[C@H]1n1ccc(=O)[nH]c1=O` [Compound 171a] had an IC50 of less than 1000 nM. For the compound `C#C[C@@]1(O)[C@H](O)[C@@H](COP(O)(=S)OP(=O)(O)OP(=O)(O)O)O[C@H]1n1ccc(=O)[nH]c1=O` (stereo partly drawn) [Compound 286a], the IC50 lay in the range of 1000 to 10000 nM.

The same assay, now with this note: 50 nM recombinant enzyme, 2.5 hours at 30° C.; read-out: IC50.
For `C[C@]1(Cl)[C@H](n2ccc(=O)[nH]c2=O)O[C@](F)(COP(=O)(O)OP(=O)(O)OP(=O)(O)O)[C@H]1O` [Compound 239a], the IC50 was 1000 to 10000 nM. For the compound `C=CC[C@@]1(O)[C@H](O)[C@@](CF)(COP(=O)(O)OP(=O)(O)OP(=O)(O)O)O[C@H]1n1ccc(=O)[nH]c1=O` [Compound 350a], the IC50 was in the range of 1000 to 10000 nM. `[N-]=[N+]=N[C@]1(COP(=O)(O)OP(=O)(O)OP(=O)(O)O)O[C@@H](n2ccc(=O)[nH]c2=O)[C@H](O)[C@@H]1O` [Compound 264a]: the IC50 was less than 1000 nM.

Take `C#C[C@]1(F)[C@H](n2ccc(=O)[nH]c2=O)O[C@](F)(COP(=O)(O)OP(=O)(O)OP(=O)(O)O)[C@H]1O` [Compound 313a]: the IC50 was 1000 to 10000 nM.

With `C=C[C@]1(COP(=O)(O)OP(=O)(O)OP(=O)(O)O)O[C@@H](n2ccc(N)nc2=O)C(F)(F)[C@@H]1O` [Compound 224a], the IC50 is 1000 to 10000 nM.

For `[N-]=[N+]=N[C@]1(COP(=O)(O)OP(=O)(O)OP(=O)(O)O)O[C@@H](n2cnc3c(=O)[nH]c(N)nc32)[C@H](F)[C@@H]1O` [Compound 269a], the IC50 is less than 1000 nM.

For the compound `C#C[C@]1(O)[C@H](n2cnc3c(=O)[nH]c(N)nc32)O[C@](F)(COP(=O)(O)OP(=O)(O)OP(=O)(O)O)[C@H]1F` [Compound 233a], the IC50 is less than 1000 nM. For `Nc1ncnc2c1ncn2[C@@H]1O[C@](CF)(COP(=O)(O)OP(=O)(O)OP(=O)(O)O)[C@@H](O)[C@H]1F` [Compound 98c], the 50% inhibitory concentration (IC50) is less than 1000 nM.

Take `[N-]=[N+]=N[C@]1(COP(=O)(O)OP(=O)(O)OP(=O)(O)O)O[C@@H](n2ccc(N)nc2=O)[C@H](O)[C@@H]1O` [Compound 383a]: the concentration for half-maximal inhibition (IC50) was less than 1000 nM. As for `C#C[C@]1(F)[C@H](n2cnc3c(=O)[nH]c(N)nc32)O[C@](F)(COP(=O)(O)OP(=O)(O)OP(=O)(O)O)[C@H]1O` [Compound 237a], the IC50 was less than 1000 nM. As for `C[C@]1(N)[C@H](n2ccc(N)nc2=O)O[C@](F)(COP(=O)(O)OP(=O)(O)OP(=O)(O)O)[C@H]1O` [Compound 303a], the IC50 lay in the range of 10000 to 100000 nM.

Consider `C=C[C@]1(O)[C@H](n2ccc(=O)[nH]c2=O)O[C@](F)(COP(=O)(O)OP(=O)(O)OP(=O)(O)O)[C@H]1O` [Compound 330a], for which the IC50 is 1000 to 10000 nM. In the case of `C#C[C@@]1(n2cnc3c(=O)[nH]c(N)nc32)O[C@H](COP(=O)(O)OP(=O)(O)OP(=O)(O)O)[C@@H](O)[C@H]1F` [Compound 335a], the half-inhibitory concentration (IC50) is 1000 to 10000 nM.

`Nc1ccn([C@@H]2O[C@](CF)(COP(=O)(O)OP(=O)(O)OP(=O)(O)O)[C@@H](O)[C@]2(O)CF)c(=O)n1` [Compound 355a]: the IC50 was less than 1000 nM. As for `C#C[C@@]1(O)[C@H](O)[C@@H](COP(=O)(O)OP(=O)(O)OP(=O)(O)O)O[C@H]1n1cnc2c(=O)[nH]c(N)nc21` [Compound 290a], the IC50 was less than 1000 nM. Consider `N#C[C@]1(COP(=O)(O)OP(=O)(O)OP(=O)(O)O)O[C@@H](n2cnc3c(=O)[nH]c(N)nc32)[C@H](F)[C@@H]1O` [Compound 34e], for which the IC50 was less than 1000 nM.

`C#C[C@@]1(O)[C@H](O)[C@@](CF)(COP(=O)(O)OP(=O)(O)OP(=O)(O)O)O[C@H]1n1cnc2c(N)ncnc21` [Compound 230a]: the IC50 was less than 1000 nM. As to `N#C[C@@]1(n2ccc(=O)[nH]c2=O)O[C@](CF)(COP(=O)(O)OP(=O)(O)OP(=O)(O)O)[C@@H](O)[C@H]1O` [Compound 331a], the IC50 was less than 1000 nM. For the compound `Nc1ccn([C@@H]2O[C@@](COP(=O)(O)OP(=O)(O)OP(=O)(O)O)(C(F)F)[C@@H](O)[C@H]2F)c(=O)n1` [Compound 329a], the half-maximal inhibitory concentration (IC50) was in the range of 1000 to 10000 nM. With `C#C[C@]1(COP(=O)(O)OP(=O)(O)OP(=O)(O)O)O[C@@H](n2ccc(N)nc2=O)[C@H](F)[C@@H]1O` [Compound 36c], the half-maximal inhibitory concentration (IC50) lay in the range of 1000 to 10000 nM. Same read-out and setting: next, `C#C[C@@]1(O)[C@H](O)[C@@](CF)(COP(=O)(O)OP(=O)(O)OP(=O)(O)O)O[C@H]1n1ccc(=O)[nH]c1=O` [Compound 219a]: less than 1000 nM.

Turning to `C#C[C@@]1(O)[C@H](O)[C@@](CCl)(COP(=O)(O)OP(=O)(O)OP(=O)(O)O)O[C@H]1n1cnc2c(N)ncnc21` [Compound 342a], the IC50 is less than 1000 nM. Still for that read-out and setting: next, `C[C@]1(O)[C@H](n2ccc(=O)[nH]c2=O)O[C@](C)(COP(=O)(O)OP(=O)(O)OP(=O)(O)O)[C@H]1O` [Compound 217a]: less than 1000 nM. `C[C@@]1(O)[C@H](O)[C@@](CN=[N+]=[N-])(COP(=O)(O)OP(=O)(O)OP(=O)(O)O)O[C@H]1n1ccc(=O)[nH]c1=O` [Compound 346a]: the half-maximal inhibitory concentration (IC50) fell in the range of 1000 to 10000 nM.

For the compound `C#C[C@@]1(O)[C@H](O)[C@@H](COP(=O)(O)OP(=O)(O)OP(=O)(O)O)O[C@H]1n1ccc2c(N)ncnc21` [Compound 292a], the 50% inhibitory concentration (IC50) is less than 1000 nM. With `C=C[C@@]1(O)[C@H](O)[C@@](CF)(COP(=O)(O)OP(=O)(O)OP(=O)(O)O)O[C@H]1n1ccc(=O)[nH]c1=O` [Compound 348a], the half-maximal inhibitory concentration (IC50) is less than 1000 nM. On to `C[C@]1(N=[N+]=[N-])[C@H](n2ccc(N)nc2=O)O[C@](F)(COP(=O)(O)OP(=O)(O)OP(=O)(O)O)[C@H]1O` [Compound 302a], for which the IC50 lay within 1000 to 10000 nM. On to `Nc1nc(=O)n([C@@H]2O[C@](CCl)(COP(=O)(O)OP(=O)(O)OP(=O)(O)O)[C@@H](O)[C@H]2F)cc1F` [Compound 97g], for which the IC50 fell in the range of 1000 to 10000 nM.

For the compound `[N-]=[N+]=N[C@]1(COP(=O)(O)OP(=O)(O)OP(=O)(O)O)O[C@@H](n2ccc(N)nc2=O)[C@@H](O)[C@@H]1O` [Compound 270a], the IC50 is less than 1000 nM.

For `CCC[C@]1(CO)O[C@@H](n2ccc(N)nc2=O)[C@H](F)[C@@H]1O` [Compound 21a], the IC50 lay within 1000 to 10000 nM. On the same count and under the same terms, the value for `O=c1ccn([C@@H]2O[C@](CCl)(COP(=O)(O)OP(=O)(O)OP(=O)(O)O)[C@@H](O)C2(F)F)c(=O)[nH]1` [Compound 222a] was 10000 to 100000 nM; that for `C#C[C@]1(COP(=O)(O)OP(=O)(O)OP(=O)(O)O)O[C@@H](n2cnc3c(=O)[nH]c(N)nc32)[C@H](F)[C@@H]1O` [Compound 34b] was less than 1000 nM; that for `C#C[C@]1(O)[C@H](n2cnc3c(=O)[nH]c(N)nc32)O[C@](F)(COP(=O)(O)OP(=O)(O)OP(=O)(O)O)[C@H]1O` [Compound 236a] was less than 1000 nM.

In the case of `N#C[C@@]1(n2ccc(N)nc2=O)O[C@](CF)(COP(=O)(O)OP(=O)(O)OP(=O)(O)O)[C@@H](O)[C@H]1O` [Compound 332a], the IC50 is less than 1000 nM.

For `CC#C[C@@]1(O)[C@H](O)[C@@](CF)(COP(=O)(O)OP(=O)(O)OP(=O)(O)O)O[C@H]1n1ccc(=O)[nH]c1=O` [Compound 349a], the IC50 was less than 1000 nM.

As for `C[C@@]1(O)[C@H](O)[C@@](CF)(COP(=O)(O)OP(=O)(O)OP(=O)(O)O)O[C@H]1n1cnc2c(=O)[nH]c(N)nc21` [Compound 216a], the IC50 was less than 1000 nM. For `O=c1ccn([C@@H]2O[C@](CF)(COP(=O)(O)OP(=O)(O)OP(=O)(O)O)[C@@H](O)[C@H]2F)c(=O)[nH]1` [Compound 111a], the 50% inhibitory concentration (IC50) is less than 1000 nM.
